Data taken from publication PMC3163364, “Preformulation Studies of Zidovudine Derivatives: Acid Dissociation Constants, Differential Scanning Calorimetry, Thermogravimetry, X-Ray Powder Diffractometry and Aqueous Stability Studies” (Scientia Pharmaceutica, 2011).
Where two headings read alike, the source gives them in different places. Blank lines part the entries; values can stand above or below the molecule they belong to.

Tests used:
[1] = pKa determination by differential scanning potentiometry (DSP); format: physicochemical
Method: In the differential scanning potentiometry (DSP) methodology, acid and basic groups generate negative and positive areas, respectively. Thus, the NH acidic groups of AZT and thymidine were used as reference to validate the DSP, since their pKa values had been previously reported.
A conventional pH-meter (GLP 21, Crison Instrument) with an Ag/AgCl-reference electrode was used. NaOH was added at 0.1 mL increments, with its corresponding pH value recorded from the average of two sample determinations using DMSO as the cosolvent (2.5 %) at 25 °C. The areas were calculated using the Origin 7 program. For the reference graph, an aliquot of 10 mL of HCl (0.1 mol L^−1) and 0.5 mL of DMSO was titrated with NaOH (0.1 mol L^−1); for the sample graphs, aliquots (10 mL) of HCl (0.1 mol L^−1), 0.5 mL DMSO and 0.12 mmol for each compound were titrated with NaOH (0.1 mol L^−1). The volume of each solution was completed to 20 mL with Milli-Q water before titration.

[2] = aqueous stability in buffers of different pH at 60 °C, HPLC; format: physicochemical; parameters: key to Aqueous stability: Stable: degradation products by HPLC were not observed after 80 h of experiment; Unstable: The determination was not possible due to a rapid decomposition; details: for half-life at 0.5 mM: aqueous buffer, read-out: t½
Excerpt: Table 2 lists the pH media, experimental rate constants (kobs, when it could be determined) and their corresponding half-life times (t½).
The aqueous stability of AZT and their derivatives 2–6 was examined at different pH values: pH 1.0 (hydrochloric acid-potassium chloride); pH 2.6 (citric acid-sodium phosphate monobasic); pH 7.4 (sodium phosphate dibasic); pH 9.4 (sodium hydrogen carbonate-sodium hydroxide) and pH 13.2 (potassium chloride-sodium hydroxide). The buffer concentrations were 0.1 mol L^−1 and the ionic strength (μ) of the buffers was adjusted to 0.1 with calculated amount of sodium chloride (NaCl). All buffer solutions were prepared with Milli Q water. The pH of each solution was determined using a GLP 21 (Crison Instruments) pHmeter. Stock solutions (5 × 10^−5 mol mL^−1) of each compound were prepared in DMSO prior to use, with 10 μL of the stock solution being added to 990 μL of buffer, and the vials placed in a water bath at 60 °C during all the experiment. Each vial was withdrawn at predetermined time intervals, and immediately stored at −18 °C until being used. For their analysis, the samples were left to defrost, and the aliquots of 100 μL were sampled and added to 400 μL of MeOH at 25 °C. Then, the solution was analyzed by HPLC to determine the rate of disappearance of each compound.
Samples were analyzed using an HPLC system Agilent® 1100 equipped with Phenomenex® column: Hypersil ODS 5 μ particle diameter (4.6 × 250 mm). Detection was carried out with an UV detector at λ = 267 nm, using the following three solvent systems as mobile phases with a flow rate of 1 mL min^−1 at 35 °C: A); 50% phosphate buffer (pH 7.5, 0.02 mol L^−1), 50% MeOH and 2% THF; B) 60% phosphate buffer (pH 7.5, 0.02 mol L^−1), 40% MeOH and 2% THF; and; C) 65% phosphate buffer (pH 7.5, 0.02 mol L^−1), 35% MeOH and 2% THF to obtain an adequate peak separation.

[3] = Differential Scanning Calorimetry (DSC) and Thermogravimetry (TG); format: physicochemical; details: for DSC exothermic decomposition peak: accompanied by weight loss in TG, nitrogen atmosphere, 25–300 °C; for glass transition, small DSC endothermic peak (T onset): extrapolated onset temperature
Method: Compounds 2, 4, 5 and 6 also presented an exothermic decomposition peak above 150 °C, which is accompanied by a weight loss in the respective TG curves (Figure 3).
(§1) DSC measurements were carried out using a 2920 modulated DSC (TA Instrument). The temperature axis and the cell constant of the DSC were calibrated with indium. Weighed samples (1.5–3 mg, C-33 Microbalance, Cahan) were scanned in covered aluminium (Al) pans under a dynamic dry nitrogen atmosphere (50 mL min^−1) starting at 25 °C and raising the temperature in 5 °C steps until reaching 300 °C. TG measurements were performed with a TA Instrument Hi-res TG 2950 (TA Instrument). Samples (1.5–3 mg) were weighed in Al pans, starting at 25 °C and raising the temperature in 5 °C steps until reaching 300 °C, under a dynamic dry nitrogen atmosphere (50 mL min^−1). The Universal Analysis Version 2.5H software was used for both measurements. The XRPD patterns were determined at around 20 °C using a diffractometer (Miniflex 2000, Rigaku), with CuKα radiation (λ= 1.5418 Å) being obtained by Ni-filtration. Each sample was packed into an Al holder in the range of 5–50 (2Θ).

[4] = parameters: method as in earlier work; details: cited from earlier work
[5] = test system: HIV; parameters: method as in earlier work; details: previous in vitro studies; cited from earlier work
[6] = parameters: method as in earlier work; details: cited from earlier work; remark: listed apart in the source
[7] = cited from earlier work
[8] = X-Ray Powder Diffractometry (XRPD); format: physicochemical; details: around 20 °C, CuKα radiation
Method: XRPD analysis provides an accurate identification of crystalline and amorphous solid phases. The XRPD patterns of AZT and their derivatives 2–6 are depicted in Figure 4.
as §1

[9] = aqueous HCl solution with DMSO cosolvent, titrated with NaOH, DSP, DMSO 2.5 % cosolvent, 25 °C, calculated from area with eq. 2, read-out: pKa, NH group of the pyrimidinic base, experimental value
[10] = aqueous HCl solution with DMSO cosolvent, titrated with NaOH, DSP, DMSO 2.5 % cosolvent, 25 °C, calculated from area with eq. 2, read-out: pKa, aliphatic amine, experimental value

SMILES: Cc1cn([C@H]2C[C@H](O)[C@@H](CO)O2)c(=O)[nH]c1=O [Thymidine, reference compound]
pKa ([1]; pKa, NH group of the pyrimidinic base, experimental value): 9.45

SMILES: Cc1cn([C@H]2C[C@H](N=[N+]=[N-])[C@@H](CO)O2)c(=O)[nH]c1=O [compound 1, 3′-Azido-3′-deoxythymidine, reference compound]
pKa ([1]; DSP, DMSO 2.5 % cosolvent, 25 °C, calculated from area with eq. 2, read-out: pKa, NH group of the pyrimidinic base, experimental value): 9.42
Aqueous stability ([2]; pH 1.0, 60 °C): Stable^a
aqueous stability over the studied pH media, in words ([2]; pH 1.0–13.2): stable at the studied pH media
Aqueous stability ([2]; pH 7.4, 60 °C): Stable^a
Aqueous stability ([2]; pH 9.4, 60 °C): Stable^a
Aqueous stability ([2]; pH 13.2, 60 °C): Stable^a
pKa, NH acidic group, previously reported experimental value [7]: 9.68

SMILES: Cc1cn([C@H]2C[C@H](N=[N+]=[N-])[C@@H](COC(=O)N3CCNCC3)O2)c(=O)[nH]c1=O [compound 5]
pKa [1, 9]: 8.66
pKa [1, 10]: 6.52
half-life at 0.5 mM ([2]; pH 13.2, 60 °C): 3.97 h
Aqueous stability ([2]; pH 1.0, 60 °C): Stable^a
Aqueous stability ([2]; pH 7.4, 60 °C): Stable^a
Aqueous stability ([2]; pH 9.4, 60 °C): Stable^a
kobs ([2]; pH 13.2, 60 °C): 0.00323 min⁻¹
DSC exothermic decomposition peak [3]: above 150 °C
glass transition, small DSC endothermic peak (T onset) [3]: 35.1 °C
solid state by XRPD (crystalline or amorphous) [8]: amorphous

SMILES: Cc1cn([C@H]2C[C@H](N=[N+]=[N-])[C@@H](COC(=O)NCCN3CCNCC3)O2)c(=O)[nH]c1=O [compound 6]
pKa [1, 10]: 9.03
half-life at 0.5 mM ([2]; pH 13.2, 60 °C): 6.48 h
Aqueous stability ([2]; pH 1.0, 60 °C): Stable^a
Aqueous stability ([2]; pH 7.4, 60 °C): Stable^a
Aqueous stability ([2]; pH 9.4, 60 °C): Stable^a
Degradation rate constant, kobs ([2]; pH 13.2, 60 °C): 1.96 10^−3 min^−1
kobs ([2]; pH 13.2, 60 °C): 0.00196 min⁻¹
DSC exothermic decomposition peak [3]: above 150 °C
glass transition, small DSC endothermic peak (T onset) [3]: 42.5 °C
solid state by XRPD (crystalline or amorphous) [8]: amorphous

SMILES: CC[C@H]1OC(=O)[C@H](C)[C@@H](O[C@H]2C[C@@](C)(OC)[C@@H](O)[C@H](C)O2)[C@H](C)[C@@H](O[C@@H]2O[C@H](C)C[C@H](N(C)C)[C@H]2O)[C@](C)(O)C[C@@H](C)C(=O)[C@H](C)[C@@H](O)[C@]1(C)O [erytromycine]
pKa of compounds used for regression of DSP area vs pKa (eq. 2) ([7]; reference values, source not given): 8.80

Further lines, with some results ahead:

pKa [1, 9]: 8.61
half-life at 0.5 mM ([2]; pH 13.2, 60 °C): 11.2 h
Aqueous stability ([2]; pH 1.0, 60 °C): Stable^a
Aqueous stability ([2]; pH 7.4, 60 °C): Stable^a
Aqueous stability ([2]; pH 9.4, 60 °C): Stable^a
Degradation rate constant, kobs ([2]; pH 13.2, 60 °C): 1.04 10^−3 min^−1
kobs ([2]; pH 13.2, 60 °C): 0.00104 min⁻¹
DSC exothermic decomposition peak [3]: above 150 °C
SMILES: Cc1cn([C@H]2C[C@H](N=[N+]=[N-])[C@@H](COC(=O)N3CCCCC3)O2)c(=O)[nH]c1=O [compound 4]

half-life at 0.5 mM ([2]; pH 7.4, 60 °C): 12.1 h
half-life at 0.5 mM ([2]; pH 9.4, 60 °C): 0.775 h
half-life at 0.5 mM ([2]; pH 13.2, 60 °C): 0.765 h
Aqueous stability ([2]; pH 1.0, 60 °C): Stable^a
Degradation rate constant, kobs ([2]; pH 7.4, 60 °C): 0.94 10^−3 min^−1
Degradation rate constant, kobs ([2]; pH 9.4, 60 °C): 14.9 10^−3 min^−1
Degradation rate constant, kobs ([2]; pH 13.2, 60 °C): 15.1 10^−3 min^−1
DSC exothermic decomposition peak [3]: above 150 °C
SMILES: Cc1ccc(S(=O)(=O)OC[C@H]2O[C@@H](n3cc(C)c(=O)[nH]c3=O)C[C@@H]2N=[N+]=[N-])cc1 [compound 2]
stability in rat plasma [4]: stable
anti-HIV activity [5]: lacked the necessary activity

half-life at 0.5 mM ([2]; pH 1.0, 60 °C): 2.13 h
half-life at 0.5 mM ([2]; pH 7.4, 60 °C): 79.2 h
half-life at 0.5 mM ([2]; pH 9.4, 60 °C): 2.07 h
Degradation rate constant, kobs ([2]; pH 1.0, 60 °C): 5.43 10^−3 min^−1
Degradation rate constant, kobs ([2]; pH 7.4, 60 °C): 0.15 10^−3 min^−1
Degradation rate constant, kobs ([2]; pH 9.4, 60 °C): 5.58 10^−3 min^−1
Aqueous stability ([2]; pH 13.2, 60 °C): Unstable^d
DSC exothermic decomposition peak [3]: 215 °C
SMILES: Cc1cn2c(nc1=O)OC[C@H]1O[C@@H]2C[C@@H]1N=[N+]=[N-] [compound 3]
stability in rat plasma ([4]; 30 h of incubation at 37 °C): showed stability
anti-HIV activity [5]: anti-HIV activity
cytotoxicity [6]: no cytotoxicity
